Assay results reported in PubChem BioAssay (NCI).
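Five compound concentrations were applied to cells in 96-well plates for 48 hours; endpoints were derived by simple linear interpolation of the resulting dose-response curve. TGI denotes the concentration required for complete inhibition of growth.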

Legend:
Test in all cases: NCI anticancer screen, dose series, 48 h
SK-MEL-2 melanoma = tested on: SK-MEL-2 melanoma
OVCAR-8 ovarian = tested on: OVCAR-8 ovarian
SF-268 CNS = tested on: SF-268 CNS
A549 NSCLC = tested on: A549 NSCLC
RXF 393 renal = tested on: RXF 393 renal
SW-620 colon = tested on: SW-620 colon
SR leukemia = tested on: SR leukemia
SNB-75 CNS = tested on: SNB-75 CNS
OVCAR-4 ovarian = tested on: OVCAR-4 ovarian
TK-10 renal = tested on: TK-10 renal
MOLT-4 leukemia = tested on: MOLT-4 leukemia
SF-539 CNS = tested on: SF-539 CNS
786-0 renal = tested on: 786-0 renal
CAKI-1 renal = tested on: CAKI-1 renal
HCT-116 colon = tested on: HCT-116 colon
UO-31 renal = tested on: UO-31 renal
HOP-62 NSCLC = tested on: HOP-62 NSCLC
UACC-257 melanoma = tested on: UACC-257 melanoma
LOX IMVI melanoma = tested on: LOX IMVI melanoma
DU-145 prostate = tested on: DU-145 prostate
MCF7 breast = tested on: MCF7 breast
NCI/ADR-RES ovarian = tested on: NCI/ADR-RES ovarian
IGROV1 ovarian = tested on: IGROV1 ovarian
SN12C renal = tested on: SN12C renal
COLO 205 colon = tested on: COLO 205 colon
SF-295 CNS = tested on: SF-295 CNS
RPMI-8226 leukemia = tested on: RPMI-8226 leukemia
NCI-H226 lung = tested on: NCI-H226 lung
ACHN renal = tested on: ACHN renal
MDA-MB-435 = tested on: MDA-MB-435
HOP-92 NSCLC = tested on: HOP-92 NSCLC
SK-MEL-5 melanoma = tested on: SK-MEL-5 melanoma
MDA-N = tested on: MDA-N
HS 578T breast = tested on: HS 578T breast
HL-60(TB) leukemia = tested on: HL-60(TB) leukemia
A498 renal = tested on: A498 renal
NCI-H522 lung = tested on: NCI-H522 lung
M14 melanoma = tested on: M14 melanoma
K-562 leukemia = tested on: K-562 leukemia
SK-MEL-28 melanoma = tested on: SK-MEL-28 melanoma
MALME-3M melanoma = tested on: MALME-3M melanoma
KM12 colon = tested on: KM12 colon
T-47D breast = tested on: T-47D breast
OVCAR-5 ovarian = tested on: OVCAR-5 ovarian
MDA-MB-231 breast = tested on: MDA-MB-231 breast
HT29 colon = tested on: HT29 colon
NCI-H23 lung = tested on: NCI-H23 lung
SK-OV-3 ovarian = tested on: SK-OV-3 ovarian
U251 CNS = tested on: U251 CNS
PC-3 prostate = tested on: PC-3 prostate
OVCAR-3 ovarian = tested on: OVCAR-3 ovarian
NCI-H460 lung = tested on: NCI-H460 lung
SNB-19 CNS = tested on: SNB-19 CNS
UACC-62 melanoma = tested on: UACC-62 melanoma
EKVX NSCLC = tested on: EKVX NSCLC
HCT-15 colon = tested on: HCT-15 colon
CCRF-CEM leukemia = tested on: CCRF-CEM leukemia

COC(=O)C1CCC(=O)N1CN(C(C)=O)c1cc(OC)ccc1OC (stereo not given)
TGI (SK-MEL-2 melanoma): > 100 µM | TGI (OVCAR-8 ovarian): > 100 µM | TGI (SF-268 CNS): > 100 µM | TGI (A549 NSCLC): > 100 µM | TGI (RXF 393 renal): > 100 µM | TGI (SW-620 colon): > 100 µM | TGI (SR leukemia): > 100 µM | TGI (SNB-75 CNS): > 100 µM | TGI (OVCAR-4 ovarian): > 100 µM | TGI (TK-10 renal): > 100 µM | TGI (MOLT-4 leukemia): > 100 µM | TGI (SF-539 CNS): > 100 µM | TGI (786-0 renal): > 100 µM | TGI (CAKI-1 renal): > 100 µM | TGI (HCT-116 colon): > 100 µM | TGI (UO-31 renal): > 100 µM | TGI (HOP-62 NSCLC): > 100 µM | TGI (UACC-257 melanoma): > 100 µM | TGI (LOX IMVI melanoma): > 100 µM | TGI (DU-145 prostate): > 100 µM | TGI (MCF7 breast): > 100 µM | TGI (NCI/ADR-RES ovarian): > 100 µM | TGI (IGROV1 ovarian): > 100 µM | TGI (SN12C renal): > 100 µM | TGI (COLO 205 colon): > 100 µM | TGI (SF-295 CNS): > 100 µM | TGI (RPMI-8226 leukemia): > 100 µM | TGI (NCI-H226 lung): > 100 µM | TGI (ACHN renal): > 100 µM | TGI (MDA-MB-435): > 100 µM | TGI (HOP-92 NSCLC): > 100 µM | TGI (SK-MEL-5 melanoma): > 100 µM | TGI (MDA-N): > 100 µM | TGI (HS 578T breast): > 100 µM | TGI (HL-60(TB) leukemia): > 100 µM | TGI (A498 renal): > 100 µM | TGI (NCI-H522 lung): > 100 µM | TGI (M14 melanoma): > 100 µM | TGI (K-562 leukemia): > 100 µM | TGI (SK-MEL-28 melanoma): > 100 µM | TGI (MALME-3M melanoma): > 100 µM | TGI (KM12 colon): > 100 µM | TGI (T-47D breast): > 100 µM | TGI (OVCAR-5 ovarian): > 100 µM | TGI (MDA-MB-231 breast): > 100 µM | TGI (HT29 colon): > 100 µM | TGI (NCI-H23 lung): > 100 µM | TGI (SK-OV-3 ovarian): > 100 µM | TGI (U251 CNS): > 100 µM | TGI (PC-3 prostate): > 100 µM | TGI (OVCAR-3 ovarian): > 100 µM | TGI (NCI-H460 lung): > 100 µM | TGI (SNB-19 CNS): > 100 µM | TGI (UACC-62 melanoma): > 100 µM | TGI (EKVX NSCLC): > 100 µM | TGI (HCT-15 colon): > 100 µM

CC(C)=Cc1cc(C)c2c3c(c(O)c(O)c(C)c13)C(C)=CC2=O
TGI (SK-MEL-2 melanoma): 44.2 µM | TGI (OVCAR-8 ovarian): > 100 µM | TGI (SF-268 CNS): 60.3 µM | TGI (A549 NSCLC): 56 µM | TGI (SW-620 colon): > 100 µM | TGI (SR leukemia): 78.1 µM | TGI (MOLT-4 leukemia): 54.7 µM | TGI (SF-539 CNS): 71.6 µM | TGI (786-0 renal): 64.8 µM | TGI (CAKI-1 renal): 58.5 µM | TGI (HCT-116 colon): 37.7 µM | TGI (UO-31 renal): > 100 µM | TGI (HOP-62 NSCLC): 47.2 µM | TGI (UACC-257 melanoma): > 100 µM | TGI (LOX IMVI melanoma): 38 µM | TGI (DU-145 prostate): 89 µM | TGI (MCF7 breast): 68.7 µM | TGI (NCI/ADR-RES ovarian): 81.5 µM | TGI (IGROV1 ovarian): > 100 µM | TGI (SN12C renal): > 100 µM | TGI (COLO 205 colon): 26.6 µM | TGI (SF-295 CNS): 48.6 µM | TGI (RPMI-8226 leukemia): 15 µM | TGI (NCI-H226 lung): 50.9 µM | TGI (ACHN renal): 56.2 µM | TGI (MDA-MB-435): 55.1 µM | TGI (HOP-92 NSCLC): 38.6 µM | TGI (SK-MEL-5 melanoma): 35 µM | TGI (MDA-N): > 100 µM | TGI (HS 578T breast): 74.4 µM | TGI (HL-60(TB) leukemia): 67 µM | TGI (A498 renal): 47.5 µM | TGI (NCI-H522 lung): 41.2 µM | TGI (M14 melanoma): 48.9 µM | TGI (K-562 leukemia): > 100 µM | TGI (KM12 colon): 45.8 µM | TGI (T-47D breast): 49.3 µM | TGI (OVCAR-5 ovarian): 73.3 µM | TGI (MDA-MB-231 breast): 64.4 µM | TGI (HT29 colon): 32.1 µM | TGI (NCI-H23 lung): 64.5 µM | TGI (SK-OV-3 ovarian): 89 µM | TGI (U251 CNS): 92 µM | TGI (PC-3 prostate): > 100 µM | TGI (OVCAR-3 ovarian): 52.7 µM | TGI (NCI-H460 lung): 55.9 µM | TGI (SNB-19 CNS): > 100 µM | TGI (UACC-62 melanoma): 50.8 µM | TGI (HCT-15 colon): 51.3 µM

Cc1cn(C2C=CC(COP(=O)(OCc3ccc([N+](=O)[O-])o3)N(C)CCCCCl)O2)c(=O)[nH]c1=O (stereo not given)
TGI (SK-MEL-2 melanoma): 12.9 µM | TGI (OVCAR-8 ovarian): 32.4 µM | TGI (SF-268 CNS): 23.8 µM | TGI (A549 NSCLC): 22.8 µM | TGI (RXF 393 renal): 11.3 µM | TGI (SW-620 colon): 27.1 µM | TGI (SR leukemia): 4.83 µM | TGI (SNB-75 CNS): 10.8 µM | TGI (OVCAR-4 ovarian): 17.2 µM | TGI (TK-10 renal): 34.3 µM | TGI (MOLT-4 leukemia): 26.4 µM | TGI (SF-539 CNS): 12.3 µM | TGI (786-0 renal): 23.1 µM | TGI (CAKI-1 renal): 37 µM | TGI (HCT-116 colon): 20.8 µM | TGI (UO-31 renal): 31.1 µM | TGI (HOP-62 NSCLC): 30.9 µM | TGI (UACC-257 melanoma): 18.4 µM | TGI (LOX IMVI melanoma): 13.5 µM | TGI (DU-145 prostate): 26.1 µM | TGI (MCF7 breast): 19.6 µM | TGI (NCI/ADR-RES ovarian): > 100 µM | TGI (CCRF-CEM leukemia): 25.4 µM | TGI (IGROV1 ovarian): 12.7 µM | TGI (SN12C renal): 23.2 µM | TGI (COLO 205 colon): 9.87 µM | TGI (SF-295 CNS): 30 µM | TGI (RPMI-8226 leukemia): 14.1 µM | TGI (NCI-H226 lung): 23.6 µM | TGI (ACHN renal): 28.6 µM | TGI (MDA-MB-435): 4.42 µM | TGI (HOP-92 NSCLC): 10.9 µM | TGI (SK-MEL-5 melanoma): 3.26 µM | TGI (MDA-N): 11.8 µM | TGI (HS 578T breast): 9.89 µM | TGI (HL-60(TB) leukemia): 32.3 µM | TGI (NCI-H522 lung): 3.97 µM | TGI (M14 melanoma): 17.3 µM | TGI (K-562 leukemia): 21.6 µM | TGI (SK-MEL-28 melanoma): 22.4 µM | TGI (MALME-3M melanoma): 7.36 µM | TGI (KM12 colon): 24.1 µM | TGI (T-47D breast): 7.05 µM | TGI (OVCAR-5 ovarian): 30.9 µM | TGI (MDA-MB-231 breast): 25.9 µM | TGI (HT29 colon): 27 µM | TGI (NCI-H23 lung): 10.7 µM | TGI (SK-OV-3 ovarian): 24 µM | TGI (U251 CNS): 18.2 µM | TGI (PC-3 prostate): 27.8 µM | TGI (OVCAR-3 ovarian): 4.8 µM | TGI (NCI-H460 lung): 23.6 µM | TGI (SNB-19 CNS): 21.3 µM | TGI (UACC-62 melanoma): 17.3 µM | TGI (HCT-15 colon): 35.7 µM
